A short description of one data set: solubility in water. The format is physicochemical.
Data set [1] in a line: solubility in ethyl acetate. As to conditions: at 25° C. Type of data set: physicochemical.

Molecules are shown by their SMILES.

On to `OB(O)c1ccccc1` [PBA, phenyl boronic acid, reference compound], for which the “solubility of PBA in water” value in the data set “solubility in water” (at 25° C.) stood at 2.5 g PBA per 100 g H2O.

Regarding `c1ccc(B2OCC3OC4OB(c5ccccc5)OC4C3O2)cc1` (stereo not drawn) [XDE, xylose phenylboronic diester], the “solubility in H2O (in words)” value in the data set “solubility in water” (H2O) is listed as “extremely insoluble”. The “volume of ethyl acetate that dissolves 1 gram” value in data set [1] came to 5 mL.
